These molecules were tested against T1, Cyclin-dependent kinase 4/G1/S-specific cyclin-D1 [L188C] (Homo sapiens, UniProt P11802) (assay: CDKs Assay).

In order of falling IC50:
1. COc1ccc2cnc(Nc3ccc(N4CCCC4)cc3)nc2c1C1CCCC1 [8-cyclopentyl-7-methoxy-N-[4-(pyrrolidin-1-yl)phenyl]quinazolin-2-amine]  1750 nM
2. CC(C)c1c(O)ccc2cnc(Nc3ccccc3)nc12 [2-(phenylamino)-8-(propan-2-yl)quinazolin-7-ol]  325 nM
3. COc1ccc2cnc(Nc3ccc(N4CCC(N)C4)cc3)nc2c1C1CCCC1 (configuration not stated) [N-[4-(3-aminopyrrolidin-1-yl)phenyl]-8-cyclopentyl-7-methoxyquinazolin-2-amine]  115 nM
4. COc1ccc2cnc(Nc3ccc(N4CCOCC4)cc3)nc2c1C1CCCC1 [8-cyclopentyl-7-methoxy-N-[4-(morpholin-4-yl)phenyl]quinazolin-2-amine]  18 nM
5. COc1ccc2cnc(Nc3ccc(N4CCCCC4)cc3)nc2c1C1CCCC1 [8-cyclopentyl-7-methoxy-N-[4-(piperidin-1-yl)phenyl]quinazolin-2-amine]  11 nM
6. COc1ccc2cnc(Nc3ccc(N4CCN(C(=O)CN)CC4)cc3)nc2c1C(C)C [2-amino-1-[4-(4-{[7-methoxy-8-(propan-2-yl)quinazolin-2-yl]amino}phenyl)piperazin-1-yl]ethan-1-one]  10 nM
7. COc1ccc2cnc(Nc3ccc(N4CCNCC4)c(F)c3)nc2c1C1CCCC1 [8-cyclopentyl-N-[3-fluoro-4-(piperazin-1-yl)phenyl]-7-methoxyquinazolin-2-amine]  4 nM
8. COc1ccc2cnc(Nc3ccc(N4CCN(C(=O)CN)CC4)cc3)nc2c1C1CCCC1 [2-amino-1-(4-{4-[(8-cyclopentyl-7-methoxyquinazolin-2-yl)amino]phenyl}piperazin-1-yl)ethan-1-one]  2 nM
9. COc1ccc2cnc(Nc3ccc(N4CCN(C(C)=O)CC4)cc3)nc2c1C1CCCC1 [1-(4-{4-[(8-cyclopentyl-7-methoxyquinazolin-2-yl)amino]phenyl}piperazin-1-yl)ethan-1-one]  2 nM
10. COc1ccc2cnc(Nc3ccc(N4CCNCC4)cc3)nc2c1C1CCCC1 [8-cyclopentyl-7-methoxy-N-[4-(piperazin-1-yl)phenyl]quinazolin-2-amine]  1 nM

The molecules below were run against T1, Cyclin-dependent kinase 4/G1/S-specific cyclin-D1 [L188C] (assay: not given).

In order of falling IC50:
1. COc1ccc2cnc(Nc3ccc(N4CCCC4)cc3)nc2c1C(C)C [7-methoxy-8-(propan-2-yl)-N-[4-(pyrrolidin-1-yl)phenyl]quinazolin-2-amine]  560 nM
2. COc1ccc2cnc(Nc3ccccc3)nc2c1C(C)C [7-methoxy-N-phenyl-8-(propan-2-yl)quinazolin-2-amine]  125 nM
3. COc1ccc2cnc(Nc3ccc(N4CCCCC4)cc3)nc2c1C(C)C [7-methoxy-N-[4-(piperidin-1-yl)phenyl]-8-(propan-2-yl)quinazolin-2-amine]  52 nM
4. COc1ccc2cnc(Nc3ccc(N4CCOCC4)cc3)nc2c1C(C)C [7-methoxy-N-[4-(morpholin-4-yl)phenyl]-8-(propan-2-yl)quinazolin-2-amine]  52 nM
5. COc1ccc2cnc(Nc3ccc(N4CCN(C(C)=O)CC4)cc3)nc2c1C(C)C [1-[4-(4-{[7-methoxy-8-(propan-2-yl)quinazolin-2-yl]amino}phenyl)piperazin-1-yl]ethan-1-one]  25 nM
6. COc1ccc2cnc(Nc3ccc(N4CCNCC4)cc3)nc2c1C(C)C [7-methoxy-N-[4-(piperazin-1-yl)phenyl]-8-(propan-2-yl)quinazolin-2-amine]  16 nM
7. COc1ccc2cnc(Nc3ccc(N4CCC(N)C4)cc3)nc2c1C(C)C (configuration not stated) [N-[4-(3-aminopyrrolidin-1-yl)phenyl]-7-methoxy-8-(propan-2-yl)quinazolin-2-amine]  11 nM
